These results are taken from US8833457B2, “Sulfates and phosphates as allosteric effectors in mannanohydrolase enzyme breakers” (Baker Hughes Incorporated, priority 2011, dated 2014).

Each structure is given as a SMILES string.

The assay has as its system mannanohydrolase, GBW-22C. Put plainly: Viscosity reduction of borate-crosslinked guar gel by mannanohydrolase enzyme breaker with allosteric effector (Chandler HTHP 5500 Viscometer). It is filed as biochemical. As to conditions: 150° F., 500 psi. As to the method:
A solution was made comprising: 17 ppt of guar polymer, GW-3LDF; 1 gpt of clay stabilizer, Claytreat-3C; 1.5 gpt of buffer, BF-7L; 1 gpt of crosslinking agent, XLW-32; 1 gpt mannanohydrolase, GBW-22C, diluted 1/100 with distilled water; and 1 gpt of a 1% wt. solution of Na2SO4 (all components available from Baker Hughes Inc.). The solution was mixed with an overhead stirrer. 52 mL of crosslinked fluid was loaded on to a Chandler HTHP 5500 Viscometer and run at 500 psi, 150° F., and 100 s^−1 for an hour.
To compare the effects of phosphate and sulfate a solution was made comprising: 17 ppt of guar polymer, GW-3LDF; 1 gpt of clay stabilizer, Claytreat-3C; 1.5 gpt of buffer, BF-7L; 1 gpt of crosslinking agent, XLW-32; 1 gpt mannanohydrolase, GBW-22C, diluted 1/100 with distilled water; and 1 gpt of a 1% wt. solution of K2HPO4 (all components available from Baker Hughes Inc.).

With `O=S(=O)([O-])[O-].[Na+].[Na+]` [Na2SO4], under “3 g/L versus 1 gpt 20% wt. Na2SO4 or 2 mg/L, 100 s^−1”, the “difference in enzyme activity between high and smaller concentrations of the effector (FIG. 3)” value is given as “does not appear to be a difference”. In addition, the “effect of the effector on activity of the mannanohydrolase enzyme against the guar polymer (FIG. 3)” value (17 ppt GW-3LDF guar, XLW-32 crosslinker, 1 gpt GBW-22C diluted 1/100, 1 gpt of 1% wt. Na2SO4, 100 s^−1, one hour) was “drastically improves the activity of the mannanohydrolase enzyme”.
